{"source": "patent US9579328B2", "about": "“Prostaglandin and vasoconstrictor pharmaceutical compositions and methods of use” (ALLERGAN, INC., priority 2012, dated 2017)", "key": {"[1]": {"test_system": "lower palpebral conjunctiva of rabbits, dogs, and non-human primates", "conditions": "cited from earlier work"}, "[2]": {"test_system": "patients with glaucoma or ocular hypertension", "conditions": "cited from earlier work"}, "[3]": {"test_system": "palpebral conjunctiva of Beagle dogs", "conditions": "n = 6 per group, left eye, cited from earlier work"}, "[4]": {"test_system": "palpebral conjunctiva of New Zealand White (albino) rabbits", "conditions": "left eye, n = 16, cited from earlier work"}, "[5]": {"test_system": "conjunctiva of patients with primary open-angle glaucoma", "conditions": "cited from earlier work"}, "[6]": {"test_system": "conjunctiva of patients with bilateral open-angle glaucoma or ocular hypertension", "conditions": "bimatoprost 0.03% once daily, cited from earlier work"}, "[7]": {"conditions": "non-human primate, after single or multiple topical bimatoprost dosing; cited from earlier work"}, "[8]": {"test_system": "human cultured conjunctiva-derived epithelial cells", "conditions": "cited from earlier work"}, "[9]": {"test_system": "palpebral conjunctiva of Dutch-Belted (pigmented) rabbits", "conditions": "left eye, Bimatoprost 0.03% b.i.d. one month, n = 19; cited from earlier work"}, "[10]": {"test_system": "eyes of conscious Beagle dogs", "conditions": "bimatoprost 0.1%, latanoprost 0.005%, cited from earlier work"}, "[11]": {"test_system": "palpebral conjunctiva of Dutch-Belted (pigmented) rabbits", "set-up": "key: N = Tissues within normal histological limits", "conditions": "left eye, n = 20, cited from earlier work"}, "[12]": {"test_system": "palpebral conjunctiva of Cynomolgus monkeys", "conditions": "cited from earlier work"}, "conjunctiva of patients": {"test_system": "conjunctiva of patients", "test": "Phase 3 clinical studies, bimatoprost 0.03%/timolol 0.5% Combination versus bimatoprost monotherapy: conjunctival hyperaemia", "type": "in vivo, human", "text": "Approximately 60% of patients being treated for glaucoma require two or more agents (adjuvant therapy) to control the intraocular pressure. For this reason, combination therapies, in which two pharmaceutically active agents are combined in the same formulation, have been developed to decrease complexity in the treatment regimen, improve patient compliance, and to minimize the exposure to excipients with possible toxicity such as benzalkonium chloride. Currently, the most commonly prescribed adjuvant therapy includes a beta-blocker and a prostaglandin analogue. For this reason, Allergan has formulated bimatoprost 0.03% together with timolol 0.5% (Combination)."}, "[13]": {"conditions": "bimatoprost 0.001% q.i.d. topical ocular for one month"}, "[14]": {"conditions": "bimatoprost 0.01% q.i.d. topical ocular for one month"}, "[15]": {"conditions": "bimatoprost 0.1% q.i.d. topical ocular for one month"}, "[16]": {"conditions": "Bimatoprost 0.001% q.i.d. one month"}, "[17]": {"conditions": "Bimatoprost 0.01% q.i.d. one month"}, "[18]": {"conditions": "Bimatoprost 0.1% q.i.d. one month"}, "[19]": {"conditions": "Bimatoprost 0.03% b.i.d. 6 months"}, "[20]": {"conditions": "Bimatoprost 0.03% q.d. 6 months"}, "[21]": {"conditions": "Bimatoprost 0.1% b.i.d. 6 months"}, "[22]": {"conditions": "Pooled 192024-018T & 021T (3 months), first line"}, "[23]": {"conditions": "Pooled 192024-018T & 021T (3 months), second line"}}, "note": "Like-named read-outs stand apart in the source and are kept apart here."}
{"compound": "CCNC(=O)CCC/C=C\\C[C@@H]1[C@@H](/C=C/[C@@H](O)CCc2ccccc2)[C@H](O)C[C@@H]1O", "note": "[Bimatoprost, bimatoprost]", "values": [{"measurement": "Incidence of inflammatory infiltrates above background, lower palpebral conjunctiva: number of animals with histopathologic findings (per total number of animals)", "setting": "[1]; Dogs, Beagle, 1 month, 0.1% q.i.d. topical", "value": "0 (6)"}, {"measurement": "Incidence of inflammatory infiltrates above background, lower palpebral conjunctiva: number of animals with histopathologic findings (per total number of animals)", "setting": "[1]; Monkeys, Cynomolgus, 12 months, 0.1% b.i.d. topical", "value": "0 (60)"}, {"measurement": "Incidence of inflammatory infiltrates above background, lower palpebral conjunctiva: number of animals with histopathologic findings (per total number of animals)", "setting": "[1]; Rabbits, Dutch-Belted, 1 month, 0.03% b.i.d. topical", "value": "0 (19)"}, {"measurement": "Incidence of inflammatory infiltrates above background, lower palpebral conjunctiva: number of animals with histopathologic findings (per total number of animals)", "setting": "[1]; Rabbits, Dutch-Belted, 6 months, 0.1% b.i.d. topical", "value": "1 (20)"}, {"measurement": "Incidence of inflammatory infiltrates above background, lower palpebral conjunctiva: number of animals with histopathologic findings (per total number of animals)", "setting": "[1]; Rabbits, New Zealand White, 1 month, 0.1% q.i.d. topical", "value": "0 (16)"}, {"measurement": "compound-related findings in eyes of the animal species", "setting": "[1]; multiple subclinical, clinical, and exaggerated doses", "value": "No compound-related findings of corneal toxicity, discomfort or irritation, or histopathological changes"}, {"measurement": "in-life evaluations: treatment-related ocular surface inflammation", "setting": "[1]; periods of up to one year exposure", "value": "no treatment-related ocular surface inflammation"}, {"measurement": "mean laser-flare photometry readings and mean changes from baseline", "setting": "[2]; 1 year, bimatoprost 0.03% once or twice daily, timolol maleate 0.5% twice daily, subset of 310 patients", "value": "no significant differences among the treatment groups"}, {"measurement": "safety and tolerability", "setting": "[2]; study extension to 2 years", "value": "safe and well-tolerated"}, {"measurement": "Incidence of minimal-to-mild mononuclear cell infiltration in palpebral conjunctiva (number of animals with histopathologic findings), Lower Eyelid", "setting": "[3]; [13]", "value": 3}, {"measurement": "Incidence of minimal-to-mild mononuclear cell infiltration in palpebral conjunctiva (number of animals with histopathologic findings), Upper Eyelid", "setting": "[3]; [13]", "value": 4}, {"measurement": "Incidence of minimal-to-mild mononuclear cell infiltration in palpebral conjunctiva (number of animals with histopathologic findings), Lower Eyelid", "setting": "[3]; [14]", "value": 5}, {"measurement": "Incidence of minimal-to-mild mononuclear cell infiltration in palpebral conjunctiva (number of animals with histopathologic findings), Upper Eyelid", "setting": "[3]; [14]", "value": 3}, {"measurement": "Incidence of minimal-to-mild mononuclear cell infiltration in palpebral conjunctiva (number of animals with histopathologic findings), Lower Eyelid", "setting": "[3]; [15]", "value": 6}, {"measurement": "Incidence of minimal-to-mild mononuclear cell infiltration in palpebral conjunctiva (number of animals with histopathologic findings), Upper Eyelid", "setting": "[3]; [15]", "value": 5}, {"measurement": "Incidence of minimal-to-mild mononuclear cell infiltration in palpebral conjunctiva, Lower Eyelid", "setting": "[4]; [16]", "value": "12 number of animals"}, {"measurement": "Incidence of minimal-to-mild mononuclear cell infiltration in palpebral conjunctiva, Upper Eyelid", "setting": "[4]; [16]", "value": "4 number of animals"}, {"measurement": "Incidence of minimal-to-mild mononuclear cell infiltration in palpebral conjunctiva, Lower Eyelid", "setting": "[4]; [17]", "value": "13 number of animals"}, {"measurement": "Incidence of minimal-to-mild mononuclear cell infiltration in palpebral conjunctiva, Upper Eyelid", "setting": "[4]; [17]", "value": "6 number of animals"}, {"measurement": "Incidence of minimal-to-mild mononuclear cell infiltration in palpebral conjunctiva, Lower Eyelid", "setting": "[4]; [18]", "value": "14 number of animals"}, {"measurement": "Incidence of minimal-to-mild mononuclear cell infiltration in palpebral conjunctiva, Upper Eyelid", "setting": "[4]; [18]", "value": "8 number of animals"}, {"measurement": "eyes with signs of inflammatory cell margination or infiltration", "setting": "[5]; bimatoprost 0.03% q.d. 2 to 4 weeks, eyes with hyperemia (2/9)", "value": 22, "unit": "%"}, {"measurement": "eyes with vascular congestion", "setting": "[5]; bimatoprost 0.03% q.d. 2 to 4 weeks, eyes with hyperemia (7/9)", "value": 78, "unit": "%"}, {"measurement": "eyes that developed conjunctival hyperemia", "setting": "[5]; bimatoprost 0.03% q.d. for 2 to 4 weeks", "value": "Nine of 13"}, {"measurement": "time at which frequency and severity of hyperemia peaked after the first instillation", "setting": "[6]; 39 patients, slit-lamp biomicroscopy", "value": "approximately 1 day"}, {"measurement": "hyperemia returning to near baseline levels", "setting": "[6]; month-long study", "value": "≤ 28", "unit": "days"}, {"measurement": "clinical significance of the hyperemia", "setting": "[6]", "value": "not clinically significant"}, {"measurement": "concentrations found in ocular surface tissues", "setting": "[7]", "value": "10^−6-10^−5 molar equivalent"}, {"measurement": "direct stimulation of inflammatory pathways involving adhesion molecules or class II antigens", "setting": "[8]; in vitro", "value": "None of the drugs appeared to induce direct stimulation of inflammatory pathways"}, {"measurement": "toxicity observed", "setting": "[8]; primarily related to the concentration of benzalkonium chloride", "value": "mild"}, {"measurement": "Incidence of mononuclear cell infiltration in palpebral conjunctiva, Lower Eyelid, Minimal/mild", "setting": "[9]", "value": "12 number of animals"}, {"measurement": "Incidence of mononuclear cell infiltration in palpebral conjunctiva, Lower Eyelid, Moderate", "setting": "[9]", "value": "0 number of animals"}, {"measurement": "Incidence of mononuclear cell infiltration in palpebral conjunctiva, Upper Eyelid, Minimal/mild", "setting": "[9]", "value": "6 number of animals"}, {"measurement": "ocular surface hyperemic response (severity)", "setting": "[10]; D-NAME treated control eyes, scale 0=none, 0.5=trace, 1=mild, 2=moderate, 3=severe", "value": "trace to mild"}, {"measurement": "effect of L-NAME on elicited ocular surface hyperemia", "setting": "[10]; L-NAME 1% treated eyes, PGE2 0.01%, 0-6 h", "value": "blocked"}, {"measurement": "Mononuclear cell infiltration in palpebral conjunctiva, Lower Eyelid", "setting": "[11]; [19]", "value": "N"}, {"measurement": "Mononuclear cell infiltration in palpebral conjunctiva, Upper Eyelid", "setting": "[11]; [19]", "value": "N"}, {"measurement": "Mononuclear cell infiltration in palpebral conjunctiva, Lower Eyelid", "setting": "[11]; [20]", "value": "N"}, {"measurement": "Mononuclear cell infiltration in palpebral conjunctiva, Upper Eyelid", "setting": "[11]; [20]", "value": "N"}, {"measurement": "Mononuclear cell infiltration in palpebral conjunctiva, Lower Eyelid", "setting": "[11]; [21]", "value": "N"}, {"measurement": "Mononuclear cell infiltration in palpebral conjunctiva, Upper Eyelid", "setting": "[11]; [21]", "value": "N"}, {"measurement": "Incidence of inflammation in palpebral conjunctiva (number of animals with histopathologic findings), Upper Eyelid, Chronic active", "setting": "[12]; n = 6, right eye, bimatoprost 0.03% b.i.d. for 12 months", "value": 5}, {"measurement": "Incidence of inflammation in palpebral conjunctiva (number of animals with histopathologic findings), Upper Eyelid, Chronic active", "setting": "[12]; n = 6, right eye, bimatoprost 0.1% b.i.d. for 12 months", "value": 3}, {"measurement": "Incidence of inflammation in palpebral conjunctiva (number of animals with histopathologic findings), Upper Eyelid, Chronic active", "setting": "[12]; n = 8, right eye, bimatoprost 0.03% q.d. for 12 months", "value": 4}, {"measurement": "Incidence of Conjunctival hyperaemia Detected on Biomicroscopy, Biomicro ≧ +1", "setting": "conjunctiva of patients; 192024-026T (3 weeks)", "value": 18.9, "unit": "%"}, {"measurement": "Incidence of Conjunctival hyperaemia Reported as a Treatment-Related AE (Rx-rel AE)", "setting": "conjunctiva of patients; 192024-026T (3 weeks)", "value": 27.8, "unit": "%"}, {"measurement": "Incidence of Conjunctival hyperaemia Detected on Biomicroscopy, Biomicro ≧ +1", "setting": "conjunctiva of patients; 192024-504T (3 months)", "value": 21.1, "unit": "%"}, {"measurement": "Incidence of Conjunctival hyperaemia Reported as a Treatment-Related AE (Rx-rel AE)", "setting": "conjunctiva of patients; 192024-504T (3 months)", "value": 29.9, "unit": "%"}, {"measurement": "Incidence of Conjunctival hyperaemia Detected on Biomicroscopy, Biomicro ≧ +1", "setting": "conjunctiva of patients; [22]", "value": 30.9, "unit": "%"}, {"measurement": "Incidence of Conjunctival hyperaemia Reported as a Treatment-Related AE (Rx-rel AE)", "setting": "conjunctiva of patients; [22]", "value": 38.5, "unit": "%"}, {"measurement": "Incidence of Conjunctival hyperaemia Detected on Biomicroscopy, Biomicro ≧ +1", "setting": "conjunctiva of patients; [23]", "value": 41.5, "unit": "%"}, {"measurement": "Incidence of Conjunctival hyperaemia Reported as a Treatment-Related AE (Rx-rel AE)", "setting": "conjunctiva of patients; [23]", "value": 43.4, "unit": "%"}]}
